For test [1], the system named is Mycobacterium tuberculosis. Kind of test: Antitubercular activity against XDR Mycobacterium tuberculosis. The format is functional.
Test [2] deals with Mycobacterium tuberculosis. Put plainly: Antimycobacterial activity against Mycobacterium tuberculosis H37Rv assessed as reduction in bacterial cell growth by resazurin reduction method. The format is functional. In general terms: The colour change of resazurin is a common sign of viable cells or microbes.
A short description of test [3]: Inhibition of Mycobacterium tuberculosis isocitrate lyase.

Values after ≈ are worked out from the molar mass of the structure shown.

By MIC is commonly meant the smallest concentration in the dilution series that meets the test's criterion for growth inhibition. As for H-GWLDVAKKIGKAAFNVAKNFI-OH, the results for the MIC in test [1] and in test [2] were < 0.97 µg/mL and < 0.98 µg/mL, respectively.

Consider `CC(=O)NC[C@H]1CN(c2ccc(N3CCOCC3)c(F)c2)C(=O)O1` [LINEZOLID], for which the MIC in test [1] turned out to be 0.125 µg/mL (≈ 0.371 µM).

In general, IC50 refers to the concentration that inhibits the measured activity by half. The compound `O=c1c(O)c(-c2ccc(O)c(O)c2)oc2cc(O)cc(O)c12` [QUERCETIN] came in with an IC50 in test [3] of 3.57 µM.

The values above are taken from ChEMBL document CHEMBL6078612, “Novel strategies based on natural products and synthetic derivatives to overcome resistance in Mycobacterium tuberculosis” (Eur J Med Chem, 2024).
